These results are taken from PubChem BioAssay (NCI).

Assay in all cases: inhibition of tumour cell growth, NCI panel, 48 h
For test [1], the system named is CCRF-CEM leukemia.
Test [2] concerns HOP-92 NSCLC.
Test [3] concerns HS 578T breast.
Test [4] concerns MCF7 breast.
The subject of test [5] is NCI-H23 lung.
Test [6] concerns NCI/ADR-RES ovarian.
Test [7] has as its system OVCAR-3 ovarian.
Test [8] has as its system RXF 393 renal.
For test [9], the system named is SF-268 CNS.
For test [10], the system named is SK-MEL-5 melanoma.

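48-hour exposure; five concentrations; linearly interpolated endpoints. At the TGI there is no net growth.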 Where only a bound is given, the exact number is not on record here.

For `Cc1ccc(NC(=O)/C(=N\NC(N)=O)c2c(O)c3ccccc3[nH]c2=O)cc1`, the TGI in test [1], in [2], in test [3], in [4], in [5] and in test [6] was greater than 100 µM throughout. The TGI in [7], in test [8], in test [9] and in [10] was greater than 100 µM throughout.

On to `CSc1ccc2c(cc1=O)[C@@H](NC(=O)c1ccc([N+](=O)[O-])cc1)CCc1cc(O)c(O)c(O)c1-2`, for which the TGI in [1] was greater than 100 µM; in [2], greater than 100 µM; in test [3] it was 62 µM; in [4], greater than 100 µM; in test [5], greater than 100 µM; in test [6], 53.6 µM. Besides, the TGI in test [7] is 31.1 µM; in [8], greater than 100 µM; in [9], greater than 100 µM; in [10] it was 53.1 µM.

Take `CCOC(=O)c1cn2c(ccc3sc4ccccc4c(=O)c32)n1`: the TGI in test [1], in test [2], in test [3], in test [4], in [5] and in test [6] was greater than 100 µM in each case. Moreover, the TGI in [7], in test [8], in [9] and in test [10] was greater than 100 µM throughout.

As for `Cc1cccc(C(=O)O)c1CC1NCCC2c3ccccc3NC12` (stereo not given), the TGI in test [1], in test [2], in [3], in test [4], in test [5] and in [6] was greater than 100 µM each time. Moreover, the TGI in test [7], in test [8], in test [9] and in test [10] was greater than 100 µM throughout.

In the case of `O=S(=O)(/N=C(\NO)Nc1ccc(Cl)cc1)C1CC=C(c2ccon2)S1` (stereo not given), the TGI was 72.1 µM in [1]; greater than 85.5 µM in test [2]; greater than 66.3 µM in test [3]; greater than 100 µM in test [4]; greater than 100 µM in test [5]; greater than 100 µM in test [6]. The TGI is greater than 100 µM in test [7], 87.3 µM in [8], greater than 84.4 µM in test [9] and greater than 62.1 µM in test [10].

For the compound `COc1ccccc1/C=C/c1nc2ccccc2o1`, the TGI in [1], in test [2], in [3], in test [4], in test [5] and in test [6] was greater than 10 µM in each case. The TGI in test [7], in [8], in test [9] and in test [10] was greater than 10 µM each time.

In the case of `CC(=O)OC1[C@H](n2ccnc2)C[C@H]2[C@@H]3CC=C4CC(N5CCCC5)CC[C@]4(C)[C@H]3CC[C@]12C` (stereo not given in full), the TGI in [1], in test [2], in test [3], in test [4], in [5] and in test [6] was greater than 100 µM throughout. The TGI in [7] is greater than 100 µM; in [8] it was 43.7 µM; in [9], greater than 100 µM; in test [10], greater than 100 µM.

On to `O=C1C2CC=CCC2C(=O)N1n1c(Cc2ccccc2)n[nH]c1=O` (stereo not given), for which the TGI in [1], in [2], in [3], in test [4], in [5] and in test [6] was greater than 100 µM each time. For the same compound, the TGI in test [7], in [8], in test [9] and in test [10] was greater than 100 µM throughout.
